Results: patent US9593153B2, “Modified apelin polypeptides” (INSERM (INSTITUT NATIONAL DE LA SANTE ET DE LA RECHERCHE …, priority 2012, dated 2017)
“Also recorded” adds a separate entry of the source.

What was measured:
[1] = tested on: human platelets; assay: Intracellular Ca2+ mobilization in thrombin-stimulated human platelets (Fura-2); format: cell-based; conditions: for thrombin-induced Ca2+ mobilisation: human platelets preincubated with peptide alone; for effect on the apelin inhibitory effect on thrombin-induced Ca2+ mobilisation: human platelets, peptide together with apelin
Experimental: FIG. 6: APJ antagonist […]) and unprocessed double mutant apelin-36 (apelin-DM) confirm the role of APJ in the inhibition of platelet function by apelin. Intracellular Ca^2+ mobilization ([Ca^2+]i) in human platelets was monitored in real-time using a fluorescence spectrophotometer. Human platelets, loaded with Fura-2-AM were preincubated 3 minutes with PBS, as control (black bar); […] (100 nM; white bar); apelin (10 nM; grey bar) or […] (100 nM) plus apelin (10 nM) (dashed bar) before stimulation by thrombin (100 mU/mL). […] Human platelets were loaded with Fura-2 by incubation with 2 μM Fura-2-AM for 45 minutes at 37° C. Cells were then collected by centrifugation at 350 g for 15 min and resuspended in HEPES-buffered saline (145 mM NaCl, 10 mM HEPES, 10 mM D-glucose, 5 mM KCl, 1 mM MgSO4, pH 7.4), and supplemented with 0.1% (w/v) BSA. Fluorescence was recorded from 2 mL aliquots of magnetically stirred cell suspensions at 37° C. using a fluorescence spectrophotometer (Varian Ltd., Madrid, Spain) with excitation wavelengths of 340 and 380 nm and emission at 505 nm. Changes in [Ca^2+]i were monitored using the Fura-2 340/380 fluorescence ratio and calibrated according to the method of Grynkiewicz et al.^19. Ca^2+ release by thrombin was estimated using the integral of the rise in [Ca^2+]i for 2.5 minutes after its addition, taking a sample every second, and was expressed in nM as previously described^20.

[2] = tested on: wild-type mice; assay: Tail bleeding time after intravenous injection; format: in vivo, mouse; conditions: for tail bleeding time: peptide alone; for effect on the apelin-induced increase in bleeding time: peptide together with apelin
Source text: FIG. 7: APJ antagonist […]) and unprocessed double mutant apelin-36 (apelin-DM) confirm the role of APJ in the inhibition of platelet function by apelin. Tail bleeding time in wild-type mice receiving an intravenous injection of PBS, as control (●); […] (500 nmol/kg; ▪); apelin (50 nmol/kg; ◯) or […] (500 nmol/kg) plus apelin (50 nmol/kg) (□). FIG. 8: APJ antagonist […]) and unprocessed double mutant apelin-36 (apelin-DM) confirm the role of APJ in the inhibition of platelet function by apelin. Tail bleeding time in wild-type mice receiving an intravenous injection of PBS, as control (●); apelin (50 nmol/kg; ◯); apelin-36 (500 nmol/kg; Δ); apelin-DM (500 nmol/kg; ▪), apelin-36 plus apelin (▾) or apelin-DM plus apelin (□). Complete blood counts and haematocrit were determined with an automatic cell counter, using the standard parameters for mice. Bleeding time assays were performed on overnight fasted animals, after injection of PBS, apelin-13, apelin-36, apelin-DM or […] into the retro-orbital plexus, by cutting off the tip of the tail (3 mm from the tip) and immediately immersing it in saline at 37° C. We then recorded the time taken for the bleeding to stop.

[3] = tested on: human platelets; assay: Thrombin-induced aggregation of washed human platelets; format: cell-based; conditions: for thrombin-induced platelet aggregation: human platelets preincubated with peptide alone; for effect on the apelin inhibitory effect on thrombin-induced aggregation: human platelets, peptide together with apelin
Experimental: FIG. 5: APJ antagonist […]) and unprocessed double mutant apelin-36 (apelin-DM) confirm the role of APJ in the inhibition of platelet function by apelin. Thrombin-induced aggregation of human platelets preincubated with PBS, as control (black bar); […] (100 nM; white bar); apelin (10 nM; grey bar) or […] (100 nM) plus apelin (10 nM) (dashed bar). Venous blood was collected from healthy donors on 10% (v/v) trisodium citrate (3.8%). Written informed consent was obtained from all the donors. Platelet-rich plasma (PRP) was obtained by centrifugation (120 g; 15 minutes; 20° C.) and platelets were isolated by differential centrifugation as previously described^15. The platelet pellet was resuspended in modified Tyrode-HEPES buffer without CaCl2 (137 mM NaCl, 2 mM KCl, 0.3 mM NaH2PO4, 5.5 mM glucose, 5 mM Hepes, 12 mM NaHCO3, pH 7.3). Platelet aggregation was monitored by measuring light transmission through the stirred suspension of washed platelets (3×10^8/mL) at 37° C. in presence of 1 mM CaCl2 using a Chronolog aggregometer (Chrono-log Corporation, USA). When mentioned, platelets were first incubated with apelin-13, apelin-36, apelin-DM or […] for 3 minutes at 37° C. Platelet aggregation was triggered by adding collagen, thrombin, or ADP. Representative traces for aggregation were obtained from at least three independent experiments. Results are expressed as the percent change in light transmission with respect to the blank (buffer without platelets), set at 100%.

[4] = tested on: HUVEC; assay: HUVEC proliferation induced by VEGF (Cell Titer96 assay); format: cell-based, human
Experimental: FIG. 9: HUVEC proliferation and motility. HUVEC were serum deprived overnight and then treated for 24 h with or without VEGF in the presence of apelin wild-type (10 ng/ml) and/or apelin mut-36 (10 ng/ml). Cell proliferation was assessed using Cell Titer96 non-radioactive cell proliferation assay.

[5] = tested on: mouse aortic ring; assay: Mouse aortic ring assay
[6] = Cutaneous reverse passive Arthus reactions assay; format: in vivo
[7] = tested on: HUVEC; assay: Endothelial cell migration (motility) induced by VEGF; format: cell-based, human
[8] = tested on: chick chorioallantoic membrane; assay: Chick chorioallantoic membrane (CAM) assay; format: in vivo
[9] = tested on: proApelin processing; assay: proApelin processing in transfected cells with PC inhibitors (immunoblot); format: cell-based, human; conditions: cell transfection experiments, coexpression with apelin
Source text: FIG. 2: Human apelin cDNA encodes a protein of 77 amino acid residues. Newly synthesized apelin is a preproprotein that is proteolytically processed in order to generate mature 36, 17 and 13 amino acid forms. We cloned human apelin into pIRES2-eGFP vector adding a V5 tag in C-terminus of the apelin sequence. […] To identify the PCs involved in apelin processing, apelin and each of the PCs were transiently co-expressed in LoVo cells, a furin-deficient cell line. Supernatants were collected 24 hours after transfection and analyzed for proapelin processing by immunoblotting using a V5 antibody. As illustrated in (a), analyses of media derived from LoVo cells cotransfected with vector encoding proapelin and control vector show a band with an apparent molecular mass of 8-9 kDa, corresponding to the intact apelin precursor. […] FIG. 3: […]

Q: What does the source list for “Apelin-36: proApelin (Apelin-36), 36 amino acid cleavage product of preproapelin (LVQPRGSRNGPGPWQGGRRKFRRQRPRLSHKGPMPF; listed as Homo sapiens)”?
A: thrombin-induced Ca2+ mobilisation [1]: inhibited; tail bleeding time [2]: significant increase in bleeding time; thrombin-induced platelet aggregation [3]: inhibited

Q: For “F13A: APJ receptor antagonist apelin-13 (F13A)”, which “thrombin-induced Ca2+ mobilisation” value [1] is on record?
A: no effects

Q: And the “effect on the apelin inhibitory effect on thrombin-induced Ca2+ mobilisation” value [1]?
A: prevents the inhibitory effects of apelin alone; also recorded: abolished the apelin inhibitory effect

Q: And the tail bleeding time [2]?
A: no effects

Q: And the “effect on the apelin-induced increase in bleeding time” value [2]?
A: prevents the inhibitory effects of apelin alone; also recorded: inhibited

Q: What about the thrombin-induced platelet aggregation [3] of the same substance?
A: no effects

Q: What about the “effect on the apelin inhibitory effect on thrombin-induced aggregation” value [3] of the same substance?
A: prevents the inhibitory effects of apelin alone; also recorded: abolished the apelin inhibitory effect

Q: What does the source list for “LVQPRGSRNGPGPWQGGSSKFSSQRPRLSHKGPMPF (Synthetic inhibitor of apelin) [Apelin-DM, unprocessed mutant of apelin; cleavage sites of proapelin (18RRKFRR) replaced by 18SSKFSS]”?
A: endothelial cell proliferation induced by VEGF [4]: inhibits; effect on the apelin inhibitory effect on thrombin-induced Ca2+ mobilisation [1]: abolished the apelin inhibitory effect; effect on the apelin-induced increase in bleeding time [2]: inhibited; formation of new vessels (neo-vascularisation) [5]: prevents the neo-vascularisation; effect on the apelin inhibitory effect on thrombin-induced aggregation [3]: abolished the apelin inhibitory effect; tissue inflammation [6]: inhibited these processes; endothelial cell migration induced by VEGF [7]: inhibits; formation of new vessels (neo-vascularisation) [8]: prevents the neo-vascularisation

Q: For “alpha1-PDX: Furin inhibitor serpin alpha1-antitrypsin, furin-motif variant of α1-antitrypsin”, which “processing of proApelin” value [9] is on record?
A: inhibited

Q: Which tissue inflammation [6] does the source give for apelin here?
A: increased tissue inflammation

Q: With apelin-13 as the substance, how does the “thrombin-induced Ca2+ mobilisation” value [1] read?
A: inhibited

Q: What about the tail bleeding time [2] of the same substance?
A: significant increase in bleeding time

Q: And the “formation of new vessels (neo-vascularisation)” value [5]?
A: induced the formation of new vessels

Q: And the thrombin-induced platelet aggregation [3]?
A: inhibited

Q: What about the “formation of new vessels (neo-vascularisation)” value [8] of the same substance?
A: induced the formation of new vessels

Q: Which “processing of proApelin” value [9] does the source give for “ppFurin: Furin inhibitor, prosegment proFurin” here?
A: inhibited

Q: With ppPC5: PC inhibitor, prosegment proPC5 as the substance, how does the “processing of proApelin” value [9] read?
A: inhibited
